Reference: patent US6534515B2, “20,21-dinor-eburnamenines” (Aventis Pharma S.A., priority 1989, dated 2003)

Legend:
[1] = tested on: adrenergic alpha2 receptors; assay: Affinity for the adrenergic alpha 2 receptors (3H rauwolscine displacement, rat cortex membranes); type: binding; conditions: rat brain cortex membranes, 3H rauwolscine 0.15 nM, 45 minutes at 25° C.; CD/CX = concentrations of phentolamine/product inhibiting 50% of specific fixation
Protocol: 1) Affinity for the Adrenergic Alpha 2 Receptors:
10 cortices removed from the brains of male rats weighing an average of 150 g were homogenized in 90 ml of 0.32 M sucrose. After centrifuging 1000 g of the homogenized mixture, for 10 minutes at 0° C.+4° C., the deposit was suspended in 240 ml of 50 mM Tris HCl pH 7.7 buffer, and centrifuged at 30,000 g for 15 minutes at 0°+4° C. The new deposit was suspended in 480 ml of 50 mM NaKPO4 pH 7.4 buffer. Then, 2 ml of suspension were incubated for 45 minutes at 25° C. in the presence of ^3H rauwolscine at a concentration of 0.15 nM:
I) alone or II) with increasing concentrations of the product under test or, III) to determine the non-specific fixation with non-radioactive phentolamine at a concentration of 10^−5M.
The incubated suspensionis were filtered on Whatman GF/C and the filters were washed three times with 5 ml of NaKPO4 pH 7.4 buffer at 0° C. The ratioactivity of the filters was measured by liquid scintillation. The affinity of the product tested for the adrenergic alpha2 receptors was determined relative to phentolamine as reference product.
CD=concentration of phentolamine inhibiting 50% of the specific fixation of ^3H rauwolscine,
CX=concentration of the product under test inhibiting 50% of the specific fixation of ^3H rauwolscine.
The relative affinity was calculated by the relation: […]

[2] = tested on: male mice of CD1 CHARLES RIVER type; assay: Hypobaric anoxia survival time in mice; type: in vivo; conditions: intra-peritoneally 10 mg/kg, 60 minutes before the test, pressure drop of 630 mm Hg, relative to control animals
Protocol: Male mice of CD1 CHARLES RIVER type weighing 20 to 25 grams having gone without food for 6 hours were placed in a 2-liter chamber in which a pressure drop of 630 mm Hg was carried out according to the following kinetics:
The survival time was measured from the time TO and over a maximum time of 3 minutes and it was about 70 seconds for the control animals. The rectal temperature was measured immediately before the determination of the survival time. The products were administered intra-peritoneally at a dose of 10 mg/kg and in a volume of 10 ml/kg 60 minutes before the test and the control animals received the vehicle. The results were determined as a percentage of increase in the survival time relative to the control animals.

Compound | ARL (relative affinity, from CD and CX, relative to phentolamine as reference product) [1] | % increase in survival time [2] [%]
CC1=Cn2c3c(c4ccccc42)CCN2CCCC1C32 (stereo not drawn) [Example 7, (3-α)-15-methyl-20,21-dinoreburnameinine] | 980 | 
[16α, (±)]-15-methyl-20,21-dinoreburnamenine [Example 5] | 456 | 34
[16α, (±)]-14,15-dihydro-15-methylene-20,21-dinorburnamenine [Example 11] | 343 | 
[16α, (±)]-15-(1-propynyl)-20,21-dinoreburnamenine [Example 2] | 367 | 
[16α, (±)-20,21-dinoreburnamenin-15-methanol [Example 13] | 346 | 11
Ethyl [16α, (±)]-20,21-dinoreburnamenine-15-acetate [Example 12] | 942 | 
[16α, (±)]-N,N-dimethyl-20,21dinoreburnamenin-15-methanamine [Example 14] |  | 12
